“And” between values parts separate entries of the source, which are not always exact repeats. Equal entries are not always repeated. Where two headings read alike, the source gives them in different places. Each block holds one molecule with its values, some of them ahead of it.
Tests used:
[1] = test system: HbA1C formation (hemoglobin); assay: Hemoglobin-δ-gluconolactone (δ-Glu) assay, early stage glycation; type: biochemical, human
Protocol: The Hemoglobin-δ-gluconolactone (δ-Glu) assay was performed as per previously published procedure. All the blood samples were analyzed in triplicates. The percent inhibition of HbA1C formation by the compound was calculated by: (B-C)/(B-A)X100, where A is HbA1C concentration in the baseline control tube not treated with δ-Glu, B is the HbA1C content of the test tube treated with δ-Glu, and C is the HbA1C levels in the sample treated with both δ-Glu and the compound under study.

HSA glycation by DHA = type: biochemical, human; conditions: HSA + 20 mM DHA
Excerpt: The method of Rahbar et al., was followed with slight modifications for the determination of percent of AGEs formed [26].

[2] = test system: GK peptide cross linking in the presence of ribose; assay: N-acetyl-glycyl-lysine methyl ester (GK peptide)-ribose assay, late glycation products; type: biochemical
Protocol: GK-peptide-ribose assay was performed with slight modifications from the previously published method. […] The fluorescence of the mixture was read at 340 nm excitation wavelength and 420 nm emission wavelengths using a Shimadzu RF-5301 spectrofluorometer.

platelets = test system: platelets
Excerpt: Platelet rich plasma was obtained from the supernatant resulting from the centrifugation of blood at 200 g at room temperature.

[3] = test system: MG-mediated HSA glycation; conditions: 14 days
Excerpt: The % inhibition of AGEs formation = [1 −(fluorescence of the test group/fluorescence of the control group)] × 100.

hemoglobin = test system: hemoglobin; set-up: method as in PMID 14568007; conditions: cited from earlier work

Structure (SMILES): N=C(N)NN [AG, aminoguanidine]
- inhibition in the formation of HbA1c ([1]; 10 mM): 15%
- inhibition of fluorescence associated with AGE product formation (HSA glycation by DHA; 10 mM): 70.1%
- inhibition of late glycation products ([2]; 10 mM): 60%
- total lactate dehydrogenase released in the incubation medium (platelets; 10 mM, incubation time 0 min): 0±0.000%
- total lactate dehydrogenase released in the incubation medium (platelets; 10 mM, incubation time 30 min): 2.86±0.413%
- total lactate dehydrogenase released in the incubation medium (platelets; 10 mM, incubation time 60 min): 4.23±0.432%
- total lactate dehydrogenase released in the incubation medium (platelets; 10 mM, incubation time 90 min): 5.81±0.134%
- total lactate dehydrogenase released in the incubation medium (platelets; 10 mM, incubation time 120 min): 6.63±0.232%
- inhibition of MG-catalysed HSA glycation ([3]; 10 mM, 40 mM MG, 37°C): 49%
- effect on hemoglobin glycation (hemoglobin): no significant effect

- total lactate dehydrogenase released in the incubation medium (platelets; 200 µM, incubation time 0 min): 0±0.000%
- total lactate dehydrogenase released in the incubation medium (platelets; 200 µM, incubation time 30 min): 1.23±0.232%
- total lactate dehydrogenase released in the incubation medium (platelets; 200 µM, incubation time 60 min): 2.23±0.331%
- total lactate dehydrogenase released in the incubation medium (platelets; 200 µM, incubation time 90 min): 3.56±0.237%
- total lactate dehydrogenase released in the incubation medium (platelets; 200 µM, incubation time 120 min): 4.23% and 4.23±0.352%
- total lactate dehydrogenase released in the incubation medium (platelets; 225 µM, incubation time 120 min): 4.51±0.312%
- total lactate dehydrogenase released in the incubation medium (platelets; 250 µM, incubation time 120 min): 5.63±0.563%
- total lactate dehydrogenase released in the incubation medium (platelets; 300 µM, incubation time 120 min): 6.37±0.349%
Structure (SMILES): CN(C)C(=N)N=C(N)N [MF, metformin]
- inhibition in the formation of HbA1c ([1]; 10 µM): 11.6%
- inhibition in the formation of HbA1c ([1]; 100 µM): 17.1%
- inhibition in the formation of HbA1c ([1]; 500 µM): 23.3%
- inhibition in the formation of HbA1c ([1]; 1000 µM, simultaneous incubation): 28.1%
- inhibition of the formation of fluorescent products ([1]; pre-incubation of fresh blood with 1000 µM for 24 h, then δ-gluconolactone): 30.3%
- inhibition of late glycation end products ([2]; 200 µM, 14 day period): 66%
- cytotoxicity (LDH leakage), in words (platelets; 200 µM): not cytotoxic
- cytotoxicity (LDH leakage), in words (platelets; above 200 µM): highly cytotoxic

- inhibition of post-Amadori glycation and AGE formation (HSA glycation by DHA; 20 mM): 78.4%
- total lactate dehydrogenase released in the incubation medium (platelets; human, 0 min, 20 mM): 0±0.000%
- total lactate dehydrogenase released in the incubation medium (platelets; human, 30 min, 20 mM): 1.23±0.235%
- total lactate dehydrogenase released in the incubation medium (platelets; human, 60 min, 20 mM): 2.11±0.230%
- total lactate dehydrogenase released in the incubation medium (platelets; human, 90 min, 20 mM): 3.23±0.212%
- total lactate dehydrogenase released in the incubation medium (platelets; human, 120 min, 22 mM): 3.92±0.683%
- total lactate dehydrogenase released in the incubation medium (platelets; human, 120 min, 25 mM): 4.14±0.334%
- inhibition of MG-catalysed HSA glycation ([3]; human, 10 mM, pH 7.4): 54%
- inhibition of MG-catalysed HSA glycation ([3]; human, 20 mM, pH 7.4): 69%
Structure (SMILES): Cc1ncc(CO)c(CN)c1O [PM, pyridoxamine]
- inhibition in the formation of HbA1c ([1]; 1 mM): 9.1%
- inhibition in the formation of HbA1c ([1]; 5 mM): 20.4%
- inhibition in the formation of HbA1c ([1]; 10 mM): 29.3%
- inhibition in the formation of HbA1c ([1]; 20 mM): 41.1%
- inhibition of the formation of fluorescent products ([1]; pre-incubation of fresh blood with 20 mM for 24 h, then δ-gluconolactone): 47%
- inhibition of the formation of fluorescent products ([1]; simultaneous incubation of whole blood, δ-gluconolactone and 10 mM (so in the source), data not shown): 41%
- inhibition of late glycation end products ([2]; 20 mM): 79%
